# Experimental data published in ChEMBL document CHEMBL1201862, “PubChem BioAssay data set” (2004).
# Calls of active or inactive are those of the source.
# What was measured:
# [1] = target: Polyadenylate-binding protein 1 (Homo sapiens, UniProt P11940); assay: MLLE binding blockers, Cy5 peptide tracer – biochemical, fluorescence polarization, Cy5-PAM2 peptide, secondary, miRNA deadenylation inhibitor project, dose response (AID 602260); type: functional; settings: read-out: IC50_Mean
# [2] = target: T1, Zinc finger protein mex-5 (Caenorhabditis elegans, UniProt Q9XUB2); assay: potency of MEX-5 RNA-binding blockers – biochemical, C. elegans, fluorescence polarization, dose response (AID 1960)
# T1 sequence (Q9XUB2 whole entry): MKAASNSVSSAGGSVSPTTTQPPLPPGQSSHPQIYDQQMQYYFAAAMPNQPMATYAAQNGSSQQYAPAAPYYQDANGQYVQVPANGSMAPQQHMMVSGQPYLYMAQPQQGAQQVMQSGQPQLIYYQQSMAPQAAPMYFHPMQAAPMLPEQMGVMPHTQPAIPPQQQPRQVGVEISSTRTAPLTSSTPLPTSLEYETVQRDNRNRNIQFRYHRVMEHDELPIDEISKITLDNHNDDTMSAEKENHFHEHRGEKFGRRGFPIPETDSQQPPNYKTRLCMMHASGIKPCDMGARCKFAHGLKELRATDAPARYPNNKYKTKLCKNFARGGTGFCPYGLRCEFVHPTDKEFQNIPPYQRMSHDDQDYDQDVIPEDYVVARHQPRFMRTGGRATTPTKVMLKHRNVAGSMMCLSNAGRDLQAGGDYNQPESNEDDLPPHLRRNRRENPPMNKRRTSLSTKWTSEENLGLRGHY
# [3] = target: Dual specificity tyrosine-phosphorylation-regulated kinase 1A (Rattus norvegicus, UniProt Q63470); type: biochemical, Homo sapiens
# [4] = Counterscreen for AddAB inhibitors: absorbance-based bacterial cell-based high throughput dose response assay for inhibitors of bacterial viability. [Related pubchem assays (depositor defined):AID435030, AID449728, AID449731, AID488942, AID488955, AID488956]; type: functional
# [5] = NIH-3T3 fibroblast cytotoxicity, dose response, cytotoxicity control, cell-based, fluorescence, Alamar Blue, secondary assay (AID 2327); type: functional;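 also: NIH-3T3 mouse fibroblasts cultured with fluconazole at 8 µg/mL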
# Chain of Polyadenylate-binding protein 1 (P11940 whole entry): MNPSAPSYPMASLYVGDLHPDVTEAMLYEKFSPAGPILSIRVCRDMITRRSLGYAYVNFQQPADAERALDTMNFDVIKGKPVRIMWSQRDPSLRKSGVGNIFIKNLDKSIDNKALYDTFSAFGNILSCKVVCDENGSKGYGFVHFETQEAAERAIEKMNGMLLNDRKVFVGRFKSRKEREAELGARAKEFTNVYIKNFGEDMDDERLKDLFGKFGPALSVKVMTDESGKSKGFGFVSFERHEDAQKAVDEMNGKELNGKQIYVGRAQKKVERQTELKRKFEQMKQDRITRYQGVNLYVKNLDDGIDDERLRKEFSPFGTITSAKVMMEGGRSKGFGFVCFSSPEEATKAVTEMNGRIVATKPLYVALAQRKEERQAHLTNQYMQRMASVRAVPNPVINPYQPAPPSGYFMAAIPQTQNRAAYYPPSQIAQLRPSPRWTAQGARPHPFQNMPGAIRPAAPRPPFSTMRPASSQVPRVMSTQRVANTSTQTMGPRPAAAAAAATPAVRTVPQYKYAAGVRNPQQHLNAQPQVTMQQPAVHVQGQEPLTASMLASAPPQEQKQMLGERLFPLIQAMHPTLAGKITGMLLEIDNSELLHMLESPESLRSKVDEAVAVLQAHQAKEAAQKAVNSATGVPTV
smiles,measurement,setting,value
CN1CCc2cc3c(c4c2[C@H]1[C@H](O)c1ccccc1-4)OCO3,IC50,[1],> 66 µM (inactive)
same,EC50,[2],8.45 µM (inconclusive)
same,AC50,[3],0.877 µM (active)
same,IC50,[4],> 119 µM (inactive)
same,EC50,[5],75.6 µM (active)
